# Assays:
# [1] = test system: arbuscular mycorrhizal fungi; assay: Infection rate of arbuscular mycorrhizal fungi in chives, soil with cystathionine, GSH or Phoron (Comparative Example 2); type: in vivo, Rhizophagus irregularis DAOM197198; details: 500 spores, 1 month, FIG. 6; for infection rate (amount of hyphae per root length): 0.1 or 1 mM in soil, vs control with 500 spores
# Procedure: (§1) Specifically, monocotyledonous plants of Allium (chives; Allium schoenoprasum) were infected with arbuscular mycorrhizal fungi (Rhizophagus irregularis DAOM197198), and the infection rate (%) of the mycorrhizal fungi that had invaded inside the roots was determined.
# (§2) Plants were infected with arbuscular mycorrhizal fungi in the same manner as in Example 2. That is, the medium (one-tenth of the amount, Hoagland No. 2 basal salt mixture (SIGMA), 0.1 mM KNO3) was added to fertilizer-free soil. As control samples, sterilized chive seeds were directly seeded in soil supplemented with spores of arbuscular mycorrhizal fungi (4,000 spores) and in soil supplemented with the spores and GSSG (10 or 100 microM). The plants were allowed to grow at 23 degrees C. with 16-hour light and 8-hour dark cycles for 4 weeks. Thereafter, chives were dug out, the arbuscular mycorrhizal fungi inside the root were stained with ink, and the infection rate of the mycorrhizal fungi (the amount of hyphae per root length (%)) was determined with observation under a microscope.
# In the same manner as in Example 3, the medium (one-tenth of the amount, Hoagland No. 2 basal salt mixture (SIGMA), 0.1 mM KNO3) was added to fertilizer-free soil. As control samples, sterilized chive seeds were directly seeded in soil supplemented with spores of arbuscular mycorrhizal fungi (500 spores and 1,000 spores) and in soil supplemented with the 500 spores, cystathionine (0.1 or 1 mM), GSH (0.1 or 1 mM), and Phoron (0.1 or 1 mM). The plants were allowed to grow at 23 degrees C. with 16-hour light and 8-hour dark cycles for 1 month. Thereafter, chives were dug out, the arbuscular mycorrhizal fungi inside the root were stained with ink, and the infection potential of the mycorrhizal fungi (the amount of hyphae per root length (%)) was determined with observation under a microscope.
# [2] = test system: arbuscular mycorrhizal fungi; assay: Infection rate of arbuscular mycorrhizal fungi in chives, soil supplemented with cystathionine (Example 4); type: in vivo; details: 1 mM in soil, 4 weeks, vs cystathionine-free control, FIG. 4
# Procedure: Chives were used in this example. The medium (one-tenth of the amount, Hoagland No. 2 basal salt mixture (SIGMA), 0.1 mM KNO3) was added to fertilizer-free soil. As control samples, sterilized chive seeds were directly seeded in soil supplemented with spores of arbuscular mycorrhizal fungi (500 or 1,000 spores) and in soil supplemented with the spores and cystathionine (0.1 or 1 mM). The plants were allowed to grow at 23 degrees C. with 16-hour light and 8-hour dark cycles for 4 weeks. Thereafter, chives were dug out, the arbuscular mycorrhizal fungi inside the root were stained with ink, and the infection rate of the mycorrhizal fungi (the amount of hyphae per root length (%)) was determined with observation under a microscope.
# [3] = test system: arbuscular mycorrhizal fungi (Rhizophagus irregularis DAOM197198); details: 30 degrees C., 1 week, FIG. 7
# Procedure: The modified M medium (0.3% gerlite, Becard and Fortin, 1988 New phytologist, 108, 211-218) was supplemented with oxidized glutathione (10 microM or 100 microM), spores of arbuscular mycorrhizal fungi (Rhizophagus irregularis DAOM197198) were inoculated, and culture was conducted at 30 degrees C. for 4 weeks. For comparison, arbuscular mycorrhizal fungi were cultured in the same manner, except that oxidized glutathione was not added. The number of hyphae elongated outside of the circle (a radius of 7.5 mm) centered on the inoculated portion of the medium was counted, and the extent of elongation was determined based on the number of spores.
# In the same manner as in Example 1, reduced glutathione (10 mM) was added to the modified M medium (0.3% gerlite), spores of arbuscular mycorrhizal fungi (Rhizophagus irregularis DAOM197198) were inoculated therein, and culture was conducted at 30 degrees C. for 1 week. For comparison, arbuscular mycorrhizal fungi were cultured in the same manner, except that reduced glutathione was not added.
# [4] = test system: root nodule bacteria (Mesorhizobium loti); assay: Root nodule bacterial infection of Lotus japonicus: root nodules and infection hyphae (Comparative Example 1); type: in vivo; details: 10 or 100 microM, FIG. 5
# Procedure: In this comparative example, root nodule bacteria from Lotus japonicus plants (Mesorhizobium loti, a transformant comprising a fluorescent protein (DsRED) introduced thereinto) were used. Vermiculite was supplemented with B&D medium (Broughton and Dilworth, 1971), KNO3 (final concentration: 0.1 mM), root nodule bacteria, and oxidized glutathione at 0, 10, or 100 microM to prepare media. The resulting media (50 ml) were added to 300 ml of fertilizer-free soil (vermiculite) in a pot, and young plants of Lotus japonicus 3 days after seeding were planted therein. The infection hyphae that serve as the routes of infection with root nodule bacteria formed in the root hair cells of Lotus japonicus and the root nodules that are symbiotic organs formed in the roots of Lotus japonicus were examined 1 week and 2 weeks after the growth.
# [5] = test system: arbuscular mycorrhizal fungi (Rhizophagus irregularis DAOM197198); assay: Infection rate of arbuscular mycorrhizal fungi in roots of Lotus japonicus grown in supplemented soil (Example 2); type: in vivo; details: Lotus japonicus, 4,000 spores, 4 weeks, FIG. 2
# Procedure: Specifically, plants of Leguminosae (Lotus japonicus) were infected with arbuscular mycorrhizal fungi (Rhizophagus irregularis DAOM197198) in soil supplemented with GSSG, and the infection rate (%) of the mycorrhizal fungi invaded inside the roots was determined.
# At the outset, the medium (one-tenth of the amount, Hoagland No. 2 basal salt mixture (SIGMA), 0.1 mM KNO3) was added to fertilizer-free soil. Also, control soil supplemented with spores of arbuscular mycorrhizal fungi (4,000 or 6,000 spores) and soil supplemented with spores of arbuscular mycorrhizal fungi (4,000 spores) and GSSG (10 or 100 microM) were prepared. Subsequently, seeds of Lotus japonicus (3 days after seeding) that had germinated in agar medium were transplanted therein. The plants were allowed to grow at 23 degrees C. with 16-hour light and 8-hour dark cycles for 4 weeks. Thereafter, Lotus japonicus was dug out, the arbuscular mycorrhizal fungi inside the root were stained with ink, and the infection rate of the mycorrhizal fungi (the amount of hyphae per root length (%)) was determined with observation under a microscope.
# [6] = test system: arbuscular mycorrhizal fungi (Rhizophagus irregularis DAOM197198); assay: Hyphal elongation of arbuscular mycorrhizal fungi in modified M medium, 4 weeks (Example 1); type: cell-based; details: 10 microM or 100 microM in medium, 30 degrees C., vs control without addition, p less than 0.05, Dunnett's test, n 16-19, FIG. 1
# [7] = test system: arbuscular mycorrhizal fungi (Rhizophagus irregularis DAOM197198); assay: Infection rate of arbuscular mycorrhizal fungi in roots of chives (Allium schoenoprasum) grown in supplemented soil (Example 3); type: in vivo; details: chives, 4,000 spores, 10 or 100 microM in soil, 4 weeks; vs control; Dunnett's test, n=8; FIG. 3
# Procedure: as §1, §2
compound,measurement,setting,value
"CC(C)=CC(=O)C=C(C)C [Phoron, reference compound]",infection rate (amount of hyphae per root length),[1],inhibited
"NC(CCSCC(N)C(=O)O)C(=O)O (centres unmarked) [cystathionine, 2-amino-4-(2-amino-2-carboxy-ethyl)thio-butanoic acid]",infection rate of the mycorrhizal fungi (amount of hyphae per root length),[2],significantly enhanced
same,"infection rate compared with the sample supplemented with 1,000 spores",[1]; 1 mM,equivalent
same,infection rate (amount of hyphae per root length),[1],enhanced
"N[C@@H](CCC(=O)N[C@@H](CS)C(=O)NCC(=O)O)C(=O)O [reduced glutathione, N—(N-gamma-L-glutamyl-L-cysteinyl)glycine]",hyphal elongation of arbuscular mycorrhizal fungi at high concentration,[3]; 10 mM,no hyphal elongation was observed
same,spore survival,[3]; 10 mM,died
same,hyphal elongation of arbuscular mycorrhizal fungi,"[3]; medium supplemented with reduced glutathione, vs no addition",deteriorated hyphal elongation
same,infection rate (amount of hyphae per root length),[1],inhibited
oxidized glutathione,formation of infection hyphae,[4]; 1 week after the growth,significant inhibitory effects
same,formation of root nodules,[4]; 1 week after the growth,significant inhibitory effects
same,inhibitory effects on formation of infection hyphae,[4]; 2 weeks after the growth,not observed
same,inhibitory effects on formation of root nodules,[4]; 2 weeks after the growth,not observed
same,"infection rate compared with control inoculated with 1.5 times greater amount of spores (6,000 spores)",[5]; 10 microM,equivalent
same,infection rate of the mycorrhizal fungi (amount of hyphae per root length),"[5]; 10 or 100 microM in soil, vs GSSG-free control (4,000 spores), Dunnett's test, n=8",significantly enhanced
same,"infection rate compared with control inoculated with 1.5 times greater amount of spores (6,000 spores)",[5]; 100 microM,enhance
same,"hyphal elongation (number of hyphae elongated outside circle of radius 7.5 mm, per number of spores)",[6],significant effects of promoting hyphal elongation
same,infection rate of the mycorrhizal fungi (amount of hyphae per root length),[7],significantly enhanced

# — patent publication US11840489B2, “Symbiosis-promoting agent and method for promoting symbiosis of arbuscular mycorrhizal fungi” (TOYOTA JIDOSHA KABUSHIKI KAISHA, priority 2020, dated 2023)
